Blank lines part the entries; values can stand above or below the molecule they belong to.
Assay: Stability test of crystalline Form I and free compound (properties, relevant substances by HPLC, XRD)
Format: physicochemical
Procedure: The crystalline Form I of the co-crystal of the compound of Formula (1) with L-proline, which was prepared according to the methods in the examples; free compound of Formula (1).
The test samples were placed under conditions of 60° C., 40° C., RH 90%±5%, RH 75%±5%, 4500lx±500lx or UV-Vis for 10 days, […], and the samples were tested for relevant substances and XRD pattern; and the results were compared with those of a sample on the 0th day.
Determination of the relevant substances: the determination was carried out in accordance with High Performance Liquid Chromatography in Appendix V D in Pharmacopoeia of the People's Republic of China (2010) (Volume II).
XRD measurement: the measurement was carried out in accordance with X-Ray Powder Diffraction in Appendix IX F in Pharmacopoeia of the People's Republic of China (2010) (Volume II).

[1] = 0th day (baseline, listed under 60° C.)
[2] = UV-Vis, total illumination ≥1.2 × 10^6 Lux·h, near ultraviolet energy ≥200 w·h/m^2
[3] = conditions that meet the illumination requirement (UV-Vis)

Relevant substances (%) [1]: 0.60% | Relevant substances (%) (40° C., 5th day): 0.67% | Relevant substances (%) (40° C., 10th day): 0.65% | Relevant substances (%) (60° C., 5th day): 0.68% | Relevant substances (%) (60° C., 10th day): 0.62% | Relevant substances (%) (4500 lx ± 500 lx, 5th day): 0.66% | Relevant substances (%) (4500 lx ± 500 lx, 10th day): 0.71% | Relevant substances (%) (RH75% ± 5%, 5th day): 0.66% | Relevant substances (%) (RH75% ± 5%, 10th day): 0.64% | Relevant substances (%) (RH90% ± 5%, 5th day): 0.65% | Relevant substances (%) (RH90% ± 5%, 10th day): 0.63% | Stability compared with the free base of the compound (overall conclusion of the stability test): better stability | Change of property, relevant substances and XRD pattern (temperature, humidity or light conditions for 10 days): did not change significantly
SMILES: O=C(O)[C@@H]1CCCN1.O=C(O)[C@@H]1CCCN1.OC[C@H]1O[C@@H](c2ccc(Cl)c(Cc3ccc(O[C@H]4C[C@@H]5C[C@@H]5C4)cc3)c2)[C@H](O)[C@@H](O)[C@@H]1O [crystalline Form I]

Relevant substances (%) [1]: 1.35% | XRD [1]: Amorphism | Relevant substances (%) (40° C., 10th day): 1.44% | XRD (40° C., 10th day): Amorphism | Relevant substances (%) (60° C., 10th day): 1.43% | XRD (60° C., 10th day): Amorphism | XRD (RH75% ± 5%, 6th day): Amorphism | Hygroscopicity under humidity conditions (RH90% ± 5% / RH75% ± 5%, 6th day): significant hygroscopic deliquescence | XRD (RH90% ± 5%, 6th day): Amorphism | Properties [2]: Tawny powder | Relevant substances (%) [2]: 9.91% | XRD [2]: Amorphism | Increase of relevant substances relative to 0th day [3]: 8.56% | Change of amount of relevant substances (temperature conditions (60° C., 40° C.) for 10 days): increased
SMILES: OC[C@H]1O[C@@H](c2ccc(Cl)c(Cc3ccc(O[C@H]4C[C@@H]5C[C@@H]5C4)cc3)c2)[C@H](O)[C@@H](O)[C@@H]1O [free compound of Formula (1), (2S,3R,4R,5S,6R)-2-(3-(4-(((1R,3s,5S)-bicyclo[3.1.0]hexan-3-yl)oxy)benzyl)-4-chlorophenyl)-6-(hydroxymethyl)tetrahydro-2H-pyran-3,4,5-triol]
Change of property of the sample [3]: changed from an almost white powder to a tawny powder
